According to patent publication US20250242170A1, “Methods and Systems for Improving Photodynamic Therapy by Increasing Depth of Penetration Without Concurrently Increasing Energy Deposition” (priority 2024, published 2025):

What was measured:
Glioblastoma multiforme = assay: Use case: PDT and SONG laser in treatment of glioblastoma multiforme; format: in vivo, human
Description: The process is further described within a use case scenario of treating a person diagnosed with glioblastoma multiforme. Glioblastoma multiforme is the most aggressive of the brain cancers characterized by rapid growth and extensions throughout the brain making it surgically incurable. Prognosis without treatment is usually 3 months and with maximum treatment only 18 months. The conventional treatment protocol is neurosurgical debulking, targeted and whole brain radiation, followed by 6 months of chemotherapy with Temodar. After these treatments have been exhausted and disease recurs the prognosis is very poor and short term.
The patient described in the stated use case received debulking neurosurgery, targeted radiation to the areas of visible mass, followed by whole brain radiation, and then 6 months of Temodar. After these treatments they suffered memory loss and emotional instability.
A month after completing their last cycle of chemotherapy, the patient received the SONG Laser-based photodynamic therapy in accordance with the present specification, using ICG as the photo-active compound. On days 1, 2, and 3 of the treatment, the patient received 50 mg of nanoscaled or liposomal ICG. On day 3 they were treated with a SONG laser device at 810 nm near infra-red with a primary beam power of 5 Watts. From the peak power measured after going through the beam expander and SONG generator of 3.5 Watts this was reduced 60% to a measured output power of 1.4 Watts. The treated laser was applied in a beam expanded to 25 mm to the whole brain transcutaneously for 12 minutes total duration, by slowly scanning the 25 mm beam systematically over the skull under which brain substance is located. […]
In the mentioned use case, an additional adjunct to the patient's PDT treatment included administering SONG Laser activated and guided very small embryonic-like (VSEL) stem cells 3 days before the PDT cycle began. […] This procedure with SONG Laser activated and guided VSELs was repeated 1 day before the PDT procedure, except with 2.7 times the quantity of VSELs.

prostate neoplasia = assay: Use case: PDT and SONG laser in treatment of prostate neoplasia; conditions: a few weeks after treatment
[1] = same methylene blue + SONG laser protocol

Structure (SMILES)	MRI scan repeated, recurrence (Glioblastoma multiforme; 4 months after completing last chemotherapy, same ICG + SONG laser 810 nm protocol)	MRI scan, recurrence of Glioblastoma multiforme (Glioblastoma multiforme; a month after PDT, 50 mg nanoscaled or liposomal ICG on days 1, 2, 3, SONG laser 810 nm, 1.4 W output, whole brain, 12 min on two days, adjunct laser-activated VSELs)	memory and mood (Glioblastoma multiforme; over the next 2 months after the first MRI, same ICG + SONG laser protocol)	reduction of PSA (prostate neoplasia; 50 mg orally and also intra-rectally, 1 h wait, SONG laser 660 nm, 80 mW output, through the perineum, 10 min, PSA of 16 before) [%]	PSA level after treatment (prostate neoplasia; PSA of 16 before, same methylene blue + SONG laser protocol)	adverse effects (prostate neoplasia; [1])	urinary symptoms (prostate neoplasia; [1])
CC1(C)C(/C=C/C=C/C=C/C=C2\N(CCCCS(=O)(=O)O)c3ccc4ccccc4c3C2(C)C)=[N+](CCCCS(=O)(=O)[O-])c2ccc3ccccc3c21 [ICG, Indocyanine Green]	no evidence of recurrence	no evidence of recurrence	improvements in their memory and mood				
CN(C)c1ccc2nc3ccc(=[N+](C)C)cc-3sc2c1 [methylene blue, Methylene Blue]				50	8	no adverse effects	improvements in urinary symptoms
